Data: paper PMC6736568, “Discovery of Novel Anti-cryptosporidial Activities From Natural Products by in vitro High-Throughput Phenotypic Screening” (Frontiers in Microbiology, 2019)
Counter-ions that a name gives are not always drawn. Like-named read-outs stand apart in the source and are kept apart here.

Assays:
[1] = system: Cryptosporidium parvum; assay: qRT-PCR assay of the growth of C. parvum in vitro in HCT-8 host cells (primary and secondary screening, EC50); assay type: cell-based; settings: Cryptosporidium parvum, HCT-8; for inhibition at 3.3 µM: secondary screening at 3.3 uM, read-out: % Inhibition (3.3 uM)
[2] = system: HCT-8 host cells (Hs18S)
[3] = in vitro
[4] = primary screening at 10 uM, read-out: Inhibition (%)
[5] = primary screening at 10 uM, treated vs control

| SMILES | inhibition at 10 µM [1, 4] [%] | Hs18S ΔCT ([2]; human, 41 h, 10 μM) | cytotoxicity at 41 h, 10 µM ([3]; human) [%] | Hs18S ΔCT [2, 5] | cytotoxicity at 10 µM [3] [%] | other results |
| --- | --- | --- | --- | --- | --- | --- |
| Oc1ccc([C@H]2Oc3cc(O)cc(O)c3C[C@H]2O)cc1 [EPIAFZELECHIN (2R,3R)(-)] | -2.1 | -0.14 | -10.2 |  |  |  |
| COc1ccc([C@H]2Oc3cc(OC)cc(OC)c3C[C@H]2O)cc1 [EPIAFZELECHIN TRIMETHYL ETHER] | 13.8 | 0.21 | 13.4 |  |  |  |
| CC(=O)Oc1cc(OC(C)=O)c2c(c1)O[C@H](c1ccc(OC(C)=O)c(OC(C)=O)c1)[C@H](OC(C)=O)C2 [EPICATECHIN PENTAACETATE] | -52.5 |  |  | -0.02 | -1.3 |  |
| Oc1cc(O)c2c(c1)O[C@H](c1ccc(O)c(O)c1)[C@H](O)C2 [EPICATECHIN] | -0.62 | -0.09 | -6.3 |  |  |  |
| O=C(Oc1cc(O)cc2c1C[C@@H](OC(=O)c1cc(O)c(O)c(O)c1)[C@@H](c1cc(O)c(O)c(O)c1)O2)c1cc(O)c(O)c(O)c1 [EPIGALLOCATECHIN 3,5-DIGALLATE] | -1.19 |  |  | -0.23 | -17.5 |  |
| Oc1cc(O)c2c(c1)O[C@H](c1cc(O)c(O)c(O)c1)[C@H](O)C2 [EPIGALLOCATECHIN] | 7.01 | 0.15 | 9.9 |  |  |  |
| CNC[C@H](O)c1ccc(O)c(O)c1 [EPINEPHRINE BITARTRATE] |  |  |  |  | 2.6 | inhibition at 10 µM [1]: -27.1%; Hs18S ΔCT [2]: 0.04 |
| C[C@@H]1C(=O)O[C@H]2[C@H]1CC[C@@]1(C)C=CC(=O)[C@@]3(C)O[C@@]213 [EPOXY (4,5alpha)-4,5-DIHYDROSANTONIN] | 29.7 |  |  | -0.03 | -1.8 |  |
| C[C@]12CC[C@H]3C(=CCc4cc(O)ccc43)[C@@H]1CCC2=O [EQUILIN] | -53.6 |  |  | -0.60 |  | cytotoxicity at 41 h, 10 µM [3]: -51.5% |
| C[C@@H](CO)NC(=O)[C@@H]1C=C2c3cccc4[nH]cc(c34)C[C@H]2N(C)C1 [ERGONOVINE MALEATE] | 2.56 |  |  | 0.23 | 14.5 |  |
| CC(C)[C@@H](C)/C=C/[C@@H](C)[C@H]1CC[C@H]2C3=CC=C4C[C@@H](O)CC[C@]4(C)[C@H]3CC[C@]12C [ERGOSTEROL] | -29.6 |  | -1.9 | -0.03 |  |  |
| CC[C@H]1OC(=O)[C@H](C)[C@@H](O[C@H]2C[C@@](C)(OC)[C@@H](O)[C@H](C)O2)[C@H](C)[C@@H](O[C@@H]2O[C@H](C)C[C@H](N(C)C)[C@H]2O)[C@](C)(O)C[C@@H](C)C(=O)[C@H](C)[C@@H](O)[C@]1(C)O [ERYTHROMYCIN] | 94.6 | 0.62 | 35 |  |  | inhibition at 3.3 µM [1]: -13% |
| O=c1ccc2cc(O)c(O)cc2o1 [ESCULETIN] | -23.8 |  |  | 0.21 | 13.5 |  |
| C[C@]12CC[C@@H]3c4ccc(O)cc4CC[C@H]3[C@@H]1CC[C@@H]2O [ESTRADIOL] | 22 | -0.19 | -13.8 |  |  |  |
| C=CCc1ccc(OC)cc1 [ESTRAGOLE] | 99.6 |  |  | -0.22 | -16.6 | inhibition at 3.3 µM [1]: 15% |
| C[C@]12CC[C@@H]3c4ccc(O)cc4CC[C@H]3[C@@H]1C[C@@H](O)[C@@H]2O [ESTRIOL] | 14.4 | -0.12 | -8.4 |  |  |  |
| C[C@]12CC[C@@H]3c4ccc(O)cc4CC[C@H]3[C@@H]1CCC2=O [ESTRONE] | 28.1 | -0.24 | -18.4 |  |  |  |
| COc1cc([C@@H]2c3cc4c(cc3[C@@H](O[C@@H]3O[C@@H]5CO[C@@H](C)O[C@H]5[C@H](O)[C@H]3O)[C@H]3COC(=O)[C@H]23)OCO4)cc(OC)c1O [ETOPOSIDE] | 48.5 | 0.40 | 24.1 |  |  |  |
| CC12CCC(CC1)C(C)(C)O2 [EUCALYPTOL] | 16.2 | -0.22 | -16.4 |  |  |  |
| C=CCc1ccc(O)c(OC)c1 [EUGENOL] | 3.09 | -0.36 | -28.5 |  |  |  |
| C=C(C)c1cc2cc(C(C)=O)c(O)cc2o1 [EUPARIN] | 19 |  |  | 0.23 | 14.6 |  |
| CC(C)=CCC[C@@H](C)[C@@H]1CC[C@]2(C)C3=C(CC[C@@]12C)[C@@]1(C)CC[C@H](O)C(C)(C)[C@@H]1CC3 [EUPHOL] | -2.84 | -0.29 | -22.5 |  |  |  |
| COc1cc(C)c(C(=O)O)c(O)c1 [EVERNINIC ACID] | 52.1 | -0.34 | -26.6 |  |  |  |

| SMILES | inhibition at 10 µM [1, 4] [%] | Hs18S ΔCT ([2]; human, 41 h, 10 μM) | cytotoxicity at 41 h, 10 µM ([3]; human) [%] | Hs18S ΔCT [2, 5] | cytotoxicity at 10 µM [3] [%] | other results |
| --- | --- | --- | --- | --- | --- | --- |
| COc1c2ccoc2nc2c(OC)c(OCC(O)C(C)(C)O)ccc12 (centres unmarked) [EVOXINE] | -7.37 | 0.11 | 7 |  |  |  |
| CC(C)=CCC/C(C)=C/CC/C(C)=C/CO [FARNESOL] | 8.75 | 0.02 | 1 |  |  |  |
| COC(=O)C[C@H]1C(C)(C)[C@@H](OC(C)=O)[C@@H]2CC3=C4CC(=O)O[C@@H](c5ccoc5)[C@]4(C)CC[C@@H]3[C@@]1(C)C2=O [FISSINOLIDE] | -39.8 | -0.81 | -75.3 |  |  |  |
| Nc1nc2ncc(CNc3ccc(C(=O)N[C@@H](CCC(=O)O)C(=O)O)cc3)nc2c(=O)[nH]1 [FOLIC ACID] | 3.63 | 0.02 | 1.3 |  |  |  |
| COc1ccc(-c2coc3cc(O)ccc3c2=O)cc1 [FORMONONETIN] | 13.2 | -0.62 | -53.6 |  |  |  |
| COc1cc2ccc(=O)oc2c(OC)c1OC [FRAXIDIN METHYL ETHER] | -37.3 |  |  | -0.48 | -39.5 |  |
| C[C@H]1C(=O)CC[C@@H]2[C@]1(C)CC[C@H]1[C@@]2(C)CC[C@@]2(C)[C@@H]3CC(C)(C)CC[C@]3(C)CC[C@]12C [FRIEDELIN] | 20.8 |  |  | -0.23 | -17.6 |  |
| Cc1cc(O)c(C=O)c2c1C(=O)Oc1c(COC(=O)/C=C/C(=O)O)c(O)c(C(=O)O)c(C)c1O2 [FUMARPROTOCETRARIC ACID] | -5.48 | 0.10 | 6.9 |  |  |  |
| CC(=O)O[C@H]1C[C@@]2(C)[C@@H](C[C@@H](O)[C@H]3[C@@]4(C)CC[C@@H](O)[C@@H](C)[C@@H]4CC[C@@]32C)/C1=C(\CCC=C(C)C)C(=O)O [FUSIDIC ACID] | -82.8 | -0.30 | -23.2 |  |  |  |
| O=c1c(O)c(-c2ccccc2)oc2cc(O)cc(O)c12 [GALANGIN] | -14.9 |  |  | 0.39 | 23.6 |  |
| COc1ccc2c3c1O[C@H]1C[C@@H](O)C=C[C@@]31CCN(C)C2 [GALANTAMINE] | 2.66 |  |  | -0.34 | -26.2 |  |
| COC(=O)c1c(OC)cc2c(c1C)Oc1c(Cl)c(O)c(Cl)c(C)c1C(=O)O2 [GANGALEOIDIN] | -21.6 | -0.05 | -3.3 |  |  |  |
| CC(C)=CCCC1(C)C=Cc2c(O)c3c(c(CC=C(C)C)c2O1)OC12C(=CCCC1C(C)(C)O[C@@]2(C/C=C(\C)C(=O)O)C(=O)O)C3=O (some centres unmarked) [GARCINOLIC ACID] | -51.3 | 0.36 | 22 |  |  |  |
| COc1ccc(-c2cc(=O)c3c(O)c(OC)c(OC)c(OC)c3o2)cc1 [GARDENIN B] | 53.6 | 0.25 | 16 |  |  |  |
| CC(=O)O[C@@H]1C[C@H]2C(C)(C)C(=O)C=C[C@]2(C)[C@H]2CC[C@@]3(C)[C@H](c4ccoc4)OC(=O)[C@H]4O[C@]43[C@@]21C [GEDUNIN] | 6.58 | 0.02 | 1.2 |  |  |  |
| CN[C@@H]1[C@@H](O)[C@@H](O[C@@H]2[C@@H](O)[C@H](O[C@H]3O[C@H]([C@@H](C)O)[C@@H](O)[C@H](O)[C@H]3N)[C@@H](N)C[C@H]2N)OC[C@]1(C)O [GENETICIN] | -26.1 |  |  | 0.07 | 4.9 |  |
| O=c1c(-c2ccc(O)cc2)coc2cc(O)cc(O)c12 [GENISTEIN] | 6.85 |  |  | 0.20 | 12.7 |  |
| COc1cc(O)c2c(=O)cc(-c3ccc(O)cc3)oc2c1 [GENKWANIN] | -9.13 |  |  | -0.83 | -77.7 |  |
| C=C1C[C@]23C[C@@]1(O)CC[C@H]2[C@@]12C=C[C@H](O)[C@@](C)(C(=O)O1)[C@H]2[C@@H]3C(=O)O [GIBBERELLIC ACID] | 32.7 |  |  | 0.09 | 5.9 |  |
| C[C@@H]1C(=O)O[C@H]2C[C@@]34[C@H]5C[C@@H](C(C)(C)C)[C@]36[C@@H](OC(=O)[C@@H]6O)O[C@@]4(C(=O)O5)[C@]21O [GINKGOLIDE A] | 37.5 |  |  | 0.10 | 6.6 |  |
| C[C@H]1O[C@@H](O[C@H]2[C@@H](O)C[C@H](O[C@H]3[C@@H](O)C[C@H](O[C@H]4CC[C@@]5(C)[C@H](CC[C@@H]6[C@@H]5CC[C@]5(C)[C@@H](C7=CC(=O)OC7)[C@@H](O)C[C@]65O)C4)O[C@@H]3C)O[C@@H]2C)C[C@H](O)[C@@H]1O [GITOXIN] | 35.4 |  |  | 0.08 | 5.4 |  |
| OC[C@@H](O)[C@@H](O[C@@H]1O[C@H](CO)[C@@H](O)[C@H](O)[C@H]1O)[C@H](O)[C@@H](O)CO [GLUCITOL-4-GUCOPYANOSIDE] | 4.89 | -0.19 | -14.4 |  |  |  |
| N[C@@H](C(=O)O)[C@@H](O)[C@H](O)[C@H](O)CO [GLUCOSAMINIC ACID] | -5.48 | 0.22 | 13.9 |  |  |  |
